The results in this text go back to patent publication US20230348418A1, “ISOINDOLINONE COMPOUNDS” (Monte Rosa Therapeutics, Inc., priority 2021, published 2023).

In this test the target is T1, Full length wild-type cereblon CRBN (Homo sapiens, UniProt Q96SW2).
T1 construct: Full length wild-type cereblon CRBN (80.0 nM, 10 μL) was incubated in assay buffer
Kind of test: Fluorescence polarization (FP) assay, cereblon binding. The text has this:
Compound activity was monitored in a fluorescence polarization (FP) homogeneous assay using 1-[5-({2-[2-(2-{[2-(2,6-dioxopiperidin-3-yl)-1,3-dioxo-2,3-dihydro-1H-isoindol-4-yl]oxy}acetamido)ethoxy]ethyl}carbamoyl)pentyl]-3,3-dimethyl-2-[(1E,3E)-5-[(2E)-1,3,3-trimethyl-5-sulfo-2,3-dihydro-1H-indol-2-ylidene]penta-1,3-dien-1-yl]-3H-indol-1-ium-5-sulfonate as a fluorescent probe. Unless otherwise stated, all reagents were purchased from Sigma Aldrich. […] Full length wild-type cereblon CRBN (80.0 nM, 10 μL) was incubated in assay buffer containing 20 mM HEPES (pH 8.0), […], 0.5 mM TCEP and 0.05% Tween 20 in the presence or absence of compound (300 nL). Inhibitors were stored as 10 mM DMSO stocks in an inert environment (low humidity, dark, low oxygen, room temperature) using the Storage Pod System. […] Following incubation at room temperature for 30 min, the assay was initiated by dispensing the probe to a final concentration of […] (2.5 nL of a 20 μM stock) using the Echo E5XX. […] The FP signal was subsequently normalized to the no-compound control (i.e., DMSO). Analysis and IC50 values were derived using Dotmatics (Dotmatics UK) software.

Setting [1] is: bounds stated in the text lists b2059-b2061, read-out: IC50 value.
The mark [2] stands for this setting: cereblon binding, class code, read-out: rFP IC50.
Setting [3] is: IC50 value, bounds stated in the text lists b2059-b2061.
[4] abbreviates: rFP IC50 [nM], cereblon binding, class code.

Like-named read-outs stand apart in the source and are kept apart here.

T1 sequence (Q96SW2 whole entry): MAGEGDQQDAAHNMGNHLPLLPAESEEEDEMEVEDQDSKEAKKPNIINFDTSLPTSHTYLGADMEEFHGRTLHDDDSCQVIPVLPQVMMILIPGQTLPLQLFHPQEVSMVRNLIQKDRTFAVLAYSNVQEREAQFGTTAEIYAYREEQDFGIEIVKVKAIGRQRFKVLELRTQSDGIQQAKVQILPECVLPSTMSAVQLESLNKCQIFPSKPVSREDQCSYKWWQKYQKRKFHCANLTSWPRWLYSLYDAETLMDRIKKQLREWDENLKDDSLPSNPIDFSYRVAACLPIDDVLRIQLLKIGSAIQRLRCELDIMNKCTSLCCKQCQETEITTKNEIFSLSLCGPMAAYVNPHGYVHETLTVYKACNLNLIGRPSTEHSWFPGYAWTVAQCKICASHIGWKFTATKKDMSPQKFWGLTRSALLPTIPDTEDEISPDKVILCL

As a reminder, the IC50 is the point on the concentration scale where inhibition reaches its midpoint. Take `O=C1CCC(N2Cc3ccc(COC(=O)Nc4ccc(C5CC5)cc4)cc3C2=O)C(=O)N1` (stereo not shown) [Compound 39]: the IC50 reads like this: under setting [1], less than 1700 nM; under setting [2], 500 to 1100 nM.
Consider `O=C1CCC(N2Cc3ccc(COC(=O)Nc4ccc(N5CCCCC5)nn4)cc3C2=O)C(=O)N1` (stereo not shown) [Compound 75], for which, under setting [1], the concentration for half-maximal inhibition (IC50) is less than 1100 nM.
As for `CC(NC(=O)OCc1ccc2c(c1)C(=O)N(C1CCC(=O)NC1=O)C2)c1ccccc1` (stereo not shown) [Compound 102], the IC50 by setting is: under setting [1], less than 1700 nM; under setting [2], 500 to 1100 nM.
For `O=C1CCC(N2Cc3ccc(COC(=O)Nc4ccc(C5COC5)cc4)cc3C2=O)C(=O)N1` (stereo not shown) [Compound 81], the IC50 under setting [1] was less than 1100 nM.
`O=C1CCC(N2Cc3ccc(COC(=O)NC4CCCC4)cc3C2=O)C(=O)N1` (stereo not shown) [Compound 29]: the IC50 runs as follows: under setting [1], less than 1700 nM; under setting [2], 500 to 1100 nM.
In the same order, the values of `Cc1c(F)cc(NC(=O)OCc2ccc3c(c2)C(=O)N(C2CCC(=O)NC2=O)C3)cc1F` (stereo not shown) [Compound 127, (2-(2,6-dioxopiperidin-3-yl)-3-oxoisoindolin-5-yl)methyl (3,5-difluoro-4-methylphenyl)carbamate] are less than 1700 nM and 1100 to 1700 nM.
As for `Cc1cc(C)c(NC(=O)OCc2ccc3c(c2)C(=O)N(C2CCC(=O)NC2=O)C3)cc1Cl` (stereo not shown) [Compound 123, (2-(2,6-dioxopiperidin-3-yl)-3-oxoisoindolin-5-yl) methyl (5-chloro-2,4-dimethylphenyl)carbamate], the IC50 is, setting by setting: under setting [1], less than 1100 nM; under setting [2], 500 to 1100 nM.
Regarding `CC1CCN(c2ccc(NC(=O)OCc3ccc4c(c3)C(=O)N(C3CCC(=O)NC3=O)C4)cn2)C1` (stereo not shown) [Compound 69], the IC50 under setting [1] was less than 1100 nM.
Still for that read-out and setting: next, `O=C1CCC(N2Cc3ccc(COC(=O)Nc4cnc(N5CCCCC5)cn4)cc3C2=O)C(=O)N1` (stereo not shown) [Compound 94]: less than 1100 nM.
On to `CN(C)C1CN(c2ccc(NC(=O)OCc3ccc4c(c3)C(=O)N(C3CCC(=O)NC3=O)C4)cn2)C1` (stereo not shown) [Compound 89], for which the IC50 was less than 1700 nM under setting [1] and 500 to 1100 nM under setting [2].
On to `Cc1c(Cl)cc(NC(=O)OCc2ccc3c(c2)C(=O)N(C2CCC(=O)NC2=O)C3)cc1OCC1CCN(C)C1` (stereo not shown) [Compound 70], for which, under setting [1], the IC50 was less than 1100 nM.
With `COc1cc(NC(=O)OCc2ccc3c(c2)C(=O)N(C2CCC(=O)NC2=O)C3)cnc1C` (stereo not shown) [Compound 51], the IC50 under setting [1] was less than 1700 nM and the IC50 under setting [2] is 500 to 1100 nM.
As to `CC1CCCCN1c1ccc(NC(=O)OCc2ccc3c(c2)C(=O)N(C2CCC(=O)NC2=O)C3)cn1` (stereo not shown) [Compound 77], the IC50 by setting is: under setting [1], less than 1700 nM; under setting [2], 500 to 1100 nM.
In the same order, the values of `Cc1c(Cl)cc(NC(=O)OCc2ccc3c(c2)C(=O)N(C2CCC(=O)NC2=O)C3)cc1OC1CCN(C)C1` (stereo not shown) [Compound 68] are less than 1700 nM and 500 to 1100 nM.
For the compound `CCc1cc(NC(=O)OCc2ccc3c(c2)C(=O)N(C2CCC(=O)NC2=O)C3)cc(C)n1` (stereo not shown) [Compound 71], the IC50 reads like this: under setting [1], less than 1700 nM; under setting [2], 1100 to 1700 nM.
Take `C[C@H]1CCCN1c1ccc(NC(=O)OCc2ccc3c(c2)C(=O)N(C2CCC(=O)NC2=O)C3)cn1` (stereo partly drawn) [Compound 156, (2-(2,6-dioxopiperidin-3-yl)-3-oxoisoindolin-5-yl)methyl (6-((S)-2-methylpyrrolidin-1-yl)pyridin-3-yl)carbamate]: the IC50 under setting [1] is less than 1100 nM.
As to `CC1(C)COc2cc(NC(=O)OCc3ccc4c(c3)C(=O)N(C3CCC(=O)NC3=O)C4)ccc21` (stereo not shown) [Compound 83], the IC50 under setting [1] was less than 1700 nM and the IC50 under setting [2] is 500 to 1100 nM.
Turning to `N#Cc1cc(Cl)cc(NC(=O)OCc2ccc3c(c2)C(=O)N(C2CCC(=O)NC2=O)C3)c1` (stereo not shown) [Compound 111, (2-(2,6-dioxopiperidin-3-yl)-3-oxoisoindolin-5-yl)methyl (3-chloro-5-cyanophenyl)carbamate], under setting [1], the IC50 was less than 1100 nM.
As for `O=C1CCC(N2Cc3ccc(COC(=O)Nc4ccc(C5CCC5)nc4)cc3C2=O)C(=O)N1` (stereo not shown) [Compound 105], the IC50 is less than 1700 nM under setting [1] and 500 to 1100 nM under setting [2].
With `CC(C)(C)c1cccc(NC(=O)OCc2ccc3c(c2)C(=O)N(C2CCC(=O)NC2=O)C3)c1` (stereo not shown) [Compound 153, (2-(2,6-dioxopiperidin-3-yl)-3-oxoisoindolin-5-yl)methyl (3-(tert-butyl)phenyl)carbamate], the IC50 under setting [1] was less than 1100 nM and the IC50 under setting [2] was in the range of 500 to 1100 nM.
`O=C1CCC(N2Cc3ccc(COC(=O)Nc4ccc5c(c4)CCC5)cc3C2=O)C(=O)N1` (stereo not shown) [Compound 56]: the IC50 is less than 1700 nM under setting [1] and 1100 to 1700 nM under setting [2].
For the compound `Cc1cc(NC(=O)OCc2ccc3c(c2)C(=O)N(C2CCC(=O)NC2=O)C3)cc(F)c1C` (stereo not shown) [Compound 117], the IC50 was less than 1100 nM under setting [3] and 500 to 1100 nM under setting [4].
As to `O=C1CCC(N2Cc3ccc(COC(=O)Nc4cnc(N5CCCCC5)c(F)c4)cc3C2=O)C(=O)N1` (stereo not shown) [Compound 72], the IC50 is, setting by setting: under setting [1], less than 1700 nM; under setting [2], 500 to 1100 nM.
In the same order, the values of `Cc1c(Cl)cc(NC(=O)OCc2ccc3c(c2)C(=O)N(C2CCC(=O)NC2=O)C3)cc1CN1CC2CC1CO2` (stereo not shown) [Compound 13] are less than 1700 nM and 500 to 1100 nM.
Turning to `Cc1ccc(NC(=O)OCc2ccc3c(c2)C(=O)N(C2CCC(=O)NC2=O)C3)cc1C` (stereo not shown) [Compound 129], the IC50 under setting [3] was less than 1100 nM.
For `O=C1CCC(N2Cc3ccc(COC(=O)Nc4ccc5c(c4)CCCO5)cc3C2=O)C(=O)N1` (stereo not shown) [Compound 67], the IC50 by setting is: under setting [1], less than 1700 nM; under setting [2], 500 to 1100 nM.
For the compound `O=C1CCC(N2Cc3ccc(COC(=O)NC4COC(c5ccccc5)OC4)cc3C2=O)C(=O)N1` (stereo not shown) [Compound 130], the IC50 runs as follows: under setting [3], less than 1100 nM; under setting [4], 500 to 1100 nM.
For the compound `O=C1CCC(N2Cc3ccc(COC(=O)Nc4cccc(OC5CC5)c4)cc3C2=O)C(=O)N1` (stereo not shown) [Compound 93], the IC50 under setting [1] is less than 1700 nM and the IC50 under setting [2] was in the range of 500 to 1100 nM.
`Cc1c(Cl)cc(NC(=O)OCc2ccc3c(c2)C(=O)N(C2CCC(=O)NC2=O)C3)cc1OC1CCNC1` (stereo not shown) [Compound 44]: the IC50 is less than 1700 nM under setting [1] and 500 to 1100 nM under setting [2].
For the compound `O=C1CCC(N2Cc3ccc(COC(=O)Nc4ccccc4)cc3C2=O)C(=O)N1` (stereo not shown) [Compound 138, (2-(2,6-dioxopiperidin-3-yl)-3-oxoisoindolin-5-yl)methyl phenylcarbamate], the IC50 by setting is: under setting [1], less than 1100 nM; under setting [2], 500 to 1100 nM.
The compound `CC(C)(C)c1cc(NC(=O)OCc2ccc3c(c2)C(=O)N(C2CCC(=O)NC2=O)C3)ccn1` (stereo not shown) [Compound 114] displayed an IC50 under setting [3] of less than 1100 nM.
For the compound `O=C1CCC(N2Cc3ccc(COC(=O)Nc4cc(F)cc(Cl)c4)cc3C2=O)C(=O)N1` (stereo not shown) [Compound 12], the IC50 was less than 1700 nM under setting [1] and 1100 to 1700 nM under setting [2].
`CC1COc2cc(NC(=O)OCc3ccc4c(c3)C(=O)N(C3CCC(=O)NC3=O)C4)ccc21` (stereo not shown) [Compound 103]: the IC50 is, setting by setting: under setting [1], less than 1700 nM; under setting [2], 500 to 1100 nM.
Consider `O=C1CCC(N2Cc3ccc(COC(=O)Nc4cc(CN5CCOCC5)cc(OC(F)(F)F)c4)cc3C2=O)C(=O)N1` (stereo not shown) [Compound 4], for which the half-maximal inhibitory concentration (IC50) is, setting by setting: under setting [1], less than 1700 nM; under setting [2], 500 to 1100 nM.
With `COc1cc(Cl)ccc1NC(=O)OCc1ccc2c(c1)C(=O)N(C1CCC(=O)NC1=O)C2` (stereo not shown) [Compound 38], the IC50 is, setting by setting: under setting [1], less than 1700 nM; under setting [2], 500 to 1100 nM.
In the same order, the values of `CC(C)(C)C12CC(NC(=O)OCc3ccc4c(c3)C(=O)N(C3CCC(=O)NC3=O)C4)(C1)C2` (stereo not shown) [Compound 120, (2-(2,6-dioxopiperidin-3-yl)-3-oxoisoindolin-5-yl)methyl (3-(tert-butyl)bicyclo[1.1.1]pentan-1-yl)carbamate] are less than 1100 nM and 500 to 1100 nM.
For the compound `O=C1CCC(N2Cc3ccc(COC(=O)N4CCC(Oc5ccccc5)C4)cc3C2=O)C(=O)N1` (stereo not shown) [Compound 30], the IC50 under setting [1] is less than 1100 nM.
On the same count and under the same terms, in the case of `Cc1cc(C#N)cc(NC(=O)OCc2ccc3c(c2)C(=O)N(C2CCC(=O)NC2=O)C3)c1` (stereo not shown) [Compound 112, (2-(2,6-dioxopiperidin-3-yl)-3-oxoisoindolin-5-yl)methyl (3-cyano-5-methylphenyl)carbamate] it was less than 1100 nM; in that of `CN1CCC(Oc2cc(Cl)cc(NC(=O)OCc3ccc4c(c3)C(=O)N(C3CCC(=O)NC3=O)C4)c2)C1` (stereo not shown) [Compound 46], less than 1100 nM; in that of `O=C1CCC(N2Cc3ccc(COC(=O)Nc4ccc(-c5ccccc5F)nc4)cc3C2=O)C(=O)N1` (stereo not shown) [Compound 84], less than 1100 nM.
With `Cc1cc(NC(=O)OCc2ccc3c(c2)C(=O)N(C2CCC(=O)NC2=O)C3)cc(C)n1` (stereo not shown) [Compound 7], the IC50 is less than 1700 nM under setting [1] and 500 to 1100 nM under setting [2].
In the same order, the values of `O=C1CCC(N2Cc3ccc(COC(=O)Nc4cccc(OC(F)F)c4)cc3C2=O)C(=O)N1` (stereo not shown) [Compound 5] are less than 1700 nM and 1100 to 1700 nM.
In the same order, the values of `Cc1c(Cl)cc(NC(=O)OCc2ccc3c(c2)C(=O)N(C2CCC(=O)NC2=O)C3)cc1CN1CCOCC1` (stereo not shown) [Compound 2] are less than 1700 nM and 500 to 1100 nM.
For the compound `Cc1cc(C)c(F)c(NC(=O)OCc2ccc3c(c2)C(=O)N(C2CCC(=O)NC2=O)C3)c1` (stereo not shown) [Compound 122, (2-(2,6-dioxopiperidin-3-yl)-3-oxoisoindolin-5-yl)methyl (2-fluoro-3,5-dimethylphenyl)carbamate], the IC50 under setting [1] was less than 1100 nM.
On to `Cc1ccccc1-c1ccc(NC(=O)OCc2ccc3c(c2)C(=O)N(C2CCC(=O)NC2=O)C3)cn1` (stereo not shown) [Compound 86], for which the IC50 runs as follows: under setting [1], less than 1700 nM; under setting [2], 500 to 1100 nM.
